Reference: US8987195B2 (priority 2012, dated 2015)
Where two headings read alike, the source gives them in different places.

What was measured:
[1] = biological target: HCV NS3/4A protease genotype 1b (Hepatitis C virus genotype 1b, UniProt P26663); assay: HCV NS3/4A protease time-resolved fluorescence (TRF) assay, Ki against genotype 1b; assay type: biochemical; conditions: IC50 [gt-1b] (nM), NS3/4A genotype 1b, enzyme 0.2 nM
Method in brief: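 Enzyme 0.2 nM 1b / 0.4 nM A156T / 0.025 nM 3a; 30 min preinc. w/ cpd; 25 nM TRF peptide; 2.5 h RT; ex 340/em 615 time-delayed; 4-param IC50 → Ki = IC50/(1+[S]/KM).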

HCV genotype 1b replicon = assay: HCV replicon assay, genotype 1b replicon EC50; assay type: cell-based, Hepatitis C virus; conditions: Hepatitis C virus, genotype 1b replicon, read-out: EC50 [gt-1b]
Method in brief: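 Replicon cells (Neo^r, some luciferase:Neo^r fusion); G418 removed at plating; compound dilution series, 24-48 h. Readout: RNA by 32P-probe hybridization/protection or TaqMan, normalized to cyclophilin A RNA, or luciferase. EC50 vs DMSO control, 4-parameter fit.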

Structure (SMILES)	IC50 [1]	EC50 (HCV genotype 1b replicon)	IC50 ([1]; K+ salt)	EC50 (HCV genotype 1b replicon; K+ salt)
Cc1nc2ccc(OCC(F)(F)F)cc2c2c1O[C@]1(CC2)C[C@H]2C(=O)N[C@]3(C(=O)NS(=O)(=O)C4(C)CC4)C[C@H]3/C=C\CCCCC[C@H](NC(=O)OC(C)(C)C(F)(F)F)C(=O)N2C1 [Example 301, 1,1,1-trifluoro-2-methylpropan-2-yl [(2R,6S,12Z,13aS,14aR,16aS)-5′-methyl-14a-{[(1-methylcyclopropyl)sulfonyl]carbamoyl}-5,16-dioxo-9′-(2,2,2-trifluoroethoxy)-1,1′,2′,5,6,7,8,9,10,11,13a,14,14a,15,16,16a-hexadecahydrospiro[cyclopropa[e]pyrrolo[1,2-a][1,4]diazacyclopentadecine-2,3′-pyrano[2,3-c]quinolin]-6-yl]carbamate]	0.013 nM	3.46 nM	–	–
Cc1nc2ccc(OCC(F)(F)F)cc2c2c1O[C@]1(CC2)C[C@H]2C(=O)N[C@]3(C(=O)NS(=O)(=O)C4(C)CC4)C[C@H]3/C=C\CCCCC[C@H](NC(=O)OC3(C)CCCC3)C(=O)N2C1 [Example 302, 1-methylcyclopentyl [(2R,6S,12Z,13aS,14aR,16aS)-5′-methyl-14a-{[(1-methylcyclopropyl)sulfonyl]carbamoyl}-5,16-dioxo-9′-(2,2,2-trifluoroethoxy)-1,1′,2′,5,6,7,8,9,10,11,13a,14,14a,15,16,16a-hexadecahydrospiro[cyclopropa[e]pyrrolo[1,2-a][1,4]diazacyclopentadecine-2,3′-pyrano[2,3-c]quinolin]-6-yl]carbamate]	0.006 nM	4.19 nM	–	–
Cc1nc2ccc(OCC(F)(F)F)cc2c2c1O[C@]1(CC2)C[C@H]2C(=O)N[C@]3(C(=O)NS(=O)(=O)C4(C)CC4)C[C@H]3/C=C\CCCCC[C@H](NC(=O)OCC(C)(C)C)C(=O)N2C1 [Example 303, 2,2-dimethylpropyl [(2R,6S,12Z,13aS,14aR,16aS)-5′-methyl-14a-{[(1-methylcyclopropyl)sulfonyl]carbamoyl}-5,16-dioxo-9′-(2,2,2-trifluoroethoxy)-1,1′,2′,5,6,7,8,9,10,11,13a,14,14a,15,16,16a-hexadecahydrospiro[cyclopropa[e]pyrrolo[1,2-a][1,4]diazacyclopentadecine-2,3′-pyrano[2,3-c]quinolin]-6-yl]carbamate]	0.012 nM	5.79 nM	–	–
Cc1nc2ccccc2c2c1O[C@]1(CC2)C[C@H]2C(=O)N[C@]3(C(=O)NS(=O)(=O)C4(C)CC4)C[C@H]3/C=C\CCCCC[C@H](NC(=O)OC(C)(C)CCS(=O)(=O)C(C)C)C(=O)N2C1 [Example 304, 2-methyl-4-(propan-2-ylsulfonyl)butan-2-yl [(2R,6S,12Z,13aS,14aR,16aS)-5′-methyl-14a-{[(1-methylcyclopropyl)sulfonyl]carbamoyl}-5,16-dioxo-1,1′,2′,5,6,7,8,9,10,11,13a,14,14a,15,16,16a-hexadecahydrospiro[cyclopropa[e]pyrrolo[1,2-a][1,4]diazacyclopentadecine-2,3′-pyrano[2,3-c]quinolin]-6-yl]carbamate]	0.027 nM	99.6 nM	–	–
Cc1nc2ccc(OC(F)(F)F)cc2c2c1O[C@]1(CC2)C[C@H]2C(=O)N[C@]3(C(=O)NS(=O)(=O)C4(C)CC4)C[C@H]3/C=C\CCCCC[C@H](NC(=O)OC(C)(C)CCS(=O)(=O)C(C)C)C(=O)N2C1 [Example 305, 2-methyl-4-(propan-2-ylsulfonyl)butan-2-yl [(2R,6S,12Z,13aS,14aR,16aS)-5′-methyl-14a-{[(1-methylcyclopropyl)sulfonyl]carbamoyl}-5,16-dioxo-9′-(trifluoromethoxy)-1,1′,2′,5,6,7,8,9,10,11,13a,14,14a,15,16,16a-hexadecahydrospiro[cyclopropa[e]pyrrolo[1,2-a][1,4]diazacyclopentadecine-2,3′-pyrano[2,3-c]quinolin]-6-yl]carbamate]	0.029 nM	35.2 nM	–	–
CC(C)(C)OC(=O)N[C@H]1CCCCC/C=C\[C@@H]2C[C@@]2(C(=O)NS(=O)(=O)C2(C)CC2)NC(=O)[C@@H]2C[C@]3(CCc4c(c(C(F)F)nc5ccccc45)O3)CN2C1=O [Example 306, tert-butyl [(2R,6S,12Z,13aS,14aR,16aS)-5′-(difluoromethyl)-14a-{[(1-methylcyclopropyl)sulfonyl]carbamoyl}-5,16-dioxo-1,1′,2′,5,6,7,8,9,10,11,13a,14,14a,15,16,16a-hexadecahydrospiro[cyclopropa[e]pyrrolo[1,2-a][1,4]diazacyclopentadecine-2,3′-pyrano[2,3-c]quinolin]-6-yl]carbamate]	0.015 nM	1.87 nM	–	–
Cc1nc2ccccc2c2c1O[C@]1(CC2)C[C@H]2C(=O)N[C@]3(C(=O)NS(=O)(=O)C4(C)CC4)C[C@H]3/C=C\CCCCC[C@H](NC(=O)OC(C)(C(F)(F)F)C(F)(F)F)C(=O)N2C1 [Example 307, 1,1,1,3,3,3-hexafluoro-2-methylpropan-2-yl [(2R,6S,12Z,13aS,14aR,16aS)-5′-methyl-14a-{[(1-methylcyclopropyl)sulfonyl]carbamoyl}-5,16-dioxo-1,1′,2′,5,6,7,8,9,10,11,13a,14,14a,15,16,16a-hexadecahydrospiro[cyclopropa[e]pyrrolo[1,2-a][1,4]diazacyclopentadecine-2,3′-pyrano[2,3-c]quinolin]-6-yl]carbamate]	0.019 nM	1080 nM	–	–
Cc1nc2ccc(OCC(F)(F)F)cc2c2c1O[C@]1(CC2)C[C@H]2C(=O)N[C@]3(C(=O)NS(=O)(=O)C4(C)CC4)C[C@H]3/C=C\CCCCC[C@H](NC(=O)OC(C)(C(F)(F)F)C(F)(F)F)C(=O)N2C1 [Example 308, 1,1,1,3,3,3-hexafluoro-2-methylpropan-2-yl [(2R,6S,12Z,13aS,14aR,16aS)-5′-methyl-14a-{[(1-methylcyclopropyl)sulfonyl]carbamoyl}-5,16-dioxo-9′-(2,2,2-trifluoroethoxy)-1,1′,2′,5,6,7,8,9,10,11,13a,14,14a,15,16,16a-hexadecahydrospiro[cyclopropa[e]pyrrolo[1,2-a][1,4]diazacyclopentadecine-2,3′-pyrano[2,3-c]quinolin]-6-yl]carbamate]	0.006 nM	416 nM	–	–
CC(C)(OC(=O)N[C@H]1CCCCC/C=C\[C@@H]2C[C@@]2(C(=O)NS(=O)(=O)C2(C)CC2)NC(=O)[C@@H]2C[C@]3(CCc4c(c(C(F)F)nc5ccccc45)O3)CN2C1=O)C(F)(F)F [Example 309, 1,1,1-trifluoro-2-methylpropan-2-yl [(2R,6S,12Z,13aS,14aR,16aS)-5′-(difluoromethyl)-14a-{[(1-methylcyclopropyl)sulfonyl]carbamoyl}-5,16-dioxo-1,1′,2′,5,6,7,8,9,10,11,13a,14,14a,15,16,16a-hexadecahydrospiro[cyclopropa[e]pyrrolo[1,2-a][1,4]diazacyclopentadecine-2,3′-pyrano[2,3-c]quinolin]-6-yl]carbamate]	0.01 nM	1.94 nM	–	–
Cc1nc2ccc(OC(F)F)cc2c2c1O[C@]1(CC2)C[C@H]2C(=O)N[C@]3(C(=O)NS(=O)(=O)C4(C)CC4)C[C@H]3/C=C\CCCCC[C@H](NC(=O)OC(C)(C)C(F)(F)F)C(=O)N2C1 [Example 310, 1,1,1-trifluoro-2-methylpropan-2-yl [(2R,6S,12Z,13aS,14aR,16aS)-9′-(difluoromethoxy)-5′-methyl-14a-{[(1-methylcyclopropyl)sulfonyl]carbamoyl}-5,16-dioxo-1,1′,2′,5,6,7,8,9,10,11,13a,14,14a,15,16,16a-hexadecahydrospiro[cyclopropa[e]pyrrolo[1,2-a][1,4]diazacyclopentadecine-2,3′-pyrano[2,3-c]quinolin]-6-yl]carbamate]	–	–	0.008 nM	5.66 nM
CC(C)(C)COC(=O)N[C@H]1CCCCC/C=C\[C@@H]2C[C@@]2(C(=O)NS(=O)(=O)C2(C)CC2)NC(=O)[C@@H]2C[C@]3(CCc4c(c(C(F)F)nc5ccccc45)O3)CN2C1=O [Example 311, 2,2-dimethylpropyl [(2R,6S,12Z,13aS,14aR,16aS)-5′-(difluoromethyl)-14a-{[(1-methylcyclopropyl)sulfonyl]carbamoyl}-5,16-dioxo-1,1′,2′,5,6,7,8,9,10,11,13a,14,14a,15,16,16a-hexadecahydrospiro[cyclopropa[e]pyrrolo[1,2-a][1,4]diazacyclopentadecine-2,3′-pyrano[2,3-c]quinolin]-6-yl]carbamate]	0.008 nM	1.23 nM	–	–
CCc1nc2ccc(OC)cc2c2c1O[C@]1(CC2)C[C@H]2C(=O)N[C@]3(C(=O)NS(=O)(=O)C4(C)CC4)C[C@H]3/C=C\CCCCC[C@H](NC(=O)OC(C)(C)C)C(=O)N2C1 [Example 312, tert-butyl [(2R,6S,12Z,13aS,14aR,16aS)-5′-ethyl-9′-methoxy-14a-{[(1-methylcyclopropyl)sulfonyl]carbamoyl}-5,16-dioxo-1,1′,2′,5,6,7,8,9,10,11,13a,14,14a,15,16,16a-hexadecahydrospiro[cyclopropa[e]pyrrolo[1,2-a][1,4]diazacyclopentadecine-2,3′-pyrano[2,3-c]quinolin]-6-yl]carbamate]	0.009 nM	3.56 nM	–	–
CCc1ccc2nc(C)c3c(c2c1)CC[C@]1(C[C@H]2C(=O)N[C@]4(C(=O)NS(=O)(=O)C5(C)CC5)C[C@H]4/C=C\CCCCC[C@H](NC(=O)OC(C)(C)C)C(=O)N2C1)O3 [Example 313, tert-butyl [(2R,6S,12Z,13aS,14aR,16aS)-9′-ethyl-5′-methyl-14a-{[(1-methylcyclopropyl)sulfonyl]carbamoyl}-5,16-dioxo-1,1′,2′,5,6,7,8,9,10,11,13a,14,14a,15,16,16a-hexadecahydrospiro[cyclopropa[e]pyrrolo[1,2-a][1,4]diazacyclopentadecine-2,3′-pyrano[2,3-c]quinolin]-6-yl]carbamate]	0.016 nM	2.87 nM	–	–
